{"source": "ChEMBL document CHEMBL4602617", "about": "“Discovery and optimization of heteroaryl piperazines as potent and selective PI3Kδ inhibitors” (Bioorg Med Chem Lett, 2020)", "key": {"[1]": {"molecular_target": "Leukocyte tyrosine kinase receptor (Homo sapiens, UniProt P29376)", "experiment": "Inhibition of recombinant human GST-tagged LTK (450 to 864 residues) cytoplasmic domain expressed in baculovirus expression system using tyrosine-6 peptide as substrate incubated for 60 mins in presence of ATP by Z'-LYTE assay"}, "Cytochrome P450 2D6": {"molecular_target": "Cytochrome P450 2D6 (Homo sapiens, UniProt P10635)", "experiment": "Inhibition of CYP2D6 (unknown origin)"}, "[2]": {"molecular_target": "Casein kinase II subunit alpha (Homo sapiens, UniProt P68400)", "experiment": "Inhibition of recombinant human full-length His-tagged CSNK2A1 expressed in baculovirus expression system using FRET-labeled Ser/Thr 11 peptide as substrate measured after 1 hr in presence of ATP by Z'-lyte assay"}, "[3]": {"molecular_target": "MAP kinase-activated protein kinase 5 (Homo sapiens, UniProt Q8IW41)", "experiment": "Inhibition of recombinant full length human His-tagged PRAK expressed in baculovirus expression system using serine/threonine-4 peptide as substrate incubated for 60 mins in presence of ATP by Z'-LYTE assay"}, "[4]": {"molecular_target": "Protein kinase C zeta type (Homo sapiens, UniProt Q05513)", "experiment": "Inhibition of recombinant full length human PKCzeta expressed in baculovirus expression system using serine/threonine-7 peptide as substrate incubated for 60 mins in presence of ATP by Z'-LYTE assay"}, "[5]": {"molecular_target": "Histamine H1 receptor (Homo sapiens) (UniProt P35367)", "experiment": "Displacement of [3H]pyrilamine from full length human recombinant histamine H1 receptor expressed in CHO-K1 cells at 10 uM measured after 180 mins by radiometric scintillation analysis relative to control", "type": "cell-based"}, "Aurora kinase A": {"molecular_target": "Aurora kinase A (Homo sapiens, UniProt O14965)", "experiment": "Inhibition of recombinant human full length AURKA expressed in baculovirus expression system using Ser/Thr-01 peptide as substrate after 1 hr in presence of ATP by Z'LYTE assay"}, "[6]": {"molecular_target": "Prostaglandin F2-alpha receptor (Homo sapiens) (UniProt P43088)", "sequence (P43088 whole entry)": "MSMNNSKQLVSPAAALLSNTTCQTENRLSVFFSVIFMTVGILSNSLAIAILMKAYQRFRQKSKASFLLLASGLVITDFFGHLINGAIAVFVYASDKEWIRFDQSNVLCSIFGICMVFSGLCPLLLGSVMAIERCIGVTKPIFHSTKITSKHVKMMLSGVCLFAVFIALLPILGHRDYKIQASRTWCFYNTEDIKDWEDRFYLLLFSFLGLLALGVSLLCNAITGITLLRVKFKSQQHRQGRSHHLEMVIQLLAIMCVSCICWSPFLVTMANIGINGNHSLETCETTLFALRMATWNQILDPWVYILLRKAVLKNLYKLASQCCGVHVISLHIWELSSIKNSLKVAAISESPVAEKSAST", "experiment": "Displacement of [3H]PGF2alpha from full length human recombinant prostanoid FP receptor expressed in HEK293 cells at 10 uM measured after 60 mins by radiometric scintillation analysis relative to control", "type": "cell-based"}, "[7]": {"molecular_target": "Hepatocyte growth factor receptor (Homo sapiens, UniProt P08581)", "sequence (P08581 whole entry, the tested form may be a part)": "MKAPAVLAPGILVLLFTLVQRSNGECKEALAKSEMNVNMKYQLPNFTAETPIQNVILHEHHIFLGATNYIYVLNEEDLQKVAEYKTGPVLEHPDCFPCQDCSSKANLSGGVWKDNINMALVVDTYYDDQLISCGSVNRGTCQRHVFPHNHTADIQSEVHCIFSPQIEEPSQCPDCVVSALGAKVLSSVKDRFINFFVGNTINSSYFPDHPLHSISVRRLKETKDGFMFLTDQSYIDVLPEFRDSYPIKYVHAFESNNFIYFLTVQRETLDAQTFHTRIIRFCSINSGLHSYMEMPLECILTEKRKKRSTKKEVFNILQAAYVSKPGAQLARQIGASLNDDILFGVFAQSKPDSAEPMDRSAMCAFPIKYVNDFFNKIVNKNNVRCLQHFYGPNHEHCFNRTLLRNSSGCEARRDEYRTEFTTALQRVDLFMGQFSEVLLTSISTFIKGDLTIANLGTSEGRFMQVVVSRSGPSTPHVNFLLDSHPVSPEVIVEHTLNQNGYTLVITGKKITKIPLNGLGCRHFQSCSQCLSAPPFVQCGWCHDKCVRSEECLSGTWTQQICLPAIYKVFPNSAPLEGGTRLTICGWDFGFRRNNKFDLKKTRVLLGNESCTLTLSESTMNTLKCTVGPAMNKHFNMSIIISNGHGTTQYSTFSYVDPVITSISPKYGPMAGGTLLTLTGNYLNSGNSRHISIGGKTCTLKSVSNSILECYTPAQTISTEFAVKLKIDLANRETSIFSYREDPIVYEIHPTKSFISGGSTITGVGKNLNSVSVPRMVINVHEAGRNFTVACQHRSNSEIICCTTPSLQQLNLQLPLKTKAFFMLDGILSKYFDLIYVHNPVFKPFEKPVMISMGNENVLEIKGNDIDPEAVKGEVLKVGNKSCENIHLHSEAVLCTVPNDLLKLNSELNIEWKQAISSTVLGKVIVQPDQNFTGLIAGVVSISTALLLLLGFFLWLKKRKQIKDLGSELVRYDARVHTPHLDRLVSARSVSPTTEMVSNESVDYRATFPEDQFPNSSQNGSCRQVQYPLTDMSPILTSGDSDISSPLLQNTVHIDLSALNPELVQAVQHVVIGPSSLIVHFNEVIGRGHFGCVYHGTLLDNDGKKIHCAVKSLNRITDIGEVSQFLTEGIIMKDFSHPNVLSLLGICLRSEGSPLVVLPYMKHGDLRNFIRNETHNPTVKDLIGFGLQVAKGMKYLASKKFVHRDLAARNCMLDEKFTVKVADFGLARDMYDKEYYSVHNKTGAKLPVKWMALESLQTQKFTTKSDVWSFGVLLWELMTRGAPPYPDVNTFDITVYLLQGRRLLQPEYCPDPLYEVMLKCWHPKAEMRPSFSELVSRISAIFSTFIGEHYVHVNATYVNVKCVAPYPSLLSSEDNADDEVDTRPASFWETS", "experiment": "Inhibition of human recombinant His-tagged cMET cytoplasmic domain expressed in baculovirus expression system using tyrosine 6 peptide as substrate after 60 mins in presence of ATP FRET based Z'-LYTE assay"}, "[8]": {"experiment": "Half life in rat at 0.5 mg/kg, iv 1 mg/kg, po", "type": "ADME, organism-based", "details": "in vivo"}, "[9]": {"molecular_target": "Prostaglandin E2 receptor EP3 subtype (Homo sapiens) (UniProt P43115)", "experiment": "Inhibition of human prostanoid EP3 receptor at 10 uM relative to control"}, "[10]": {"molecular_target": "Protein-tyrosine kinase 2-beta (Homo sapiens, UniProt Q14289)", "experiment": "Inhibition of recombinant full length human N-terminal GST-tagged PTK2B cytoplasmic domain expressed in baculovirus expression system using tyr01 peptide as substrate incubated for 60 mins in presence of ATP by Z'-LYTE assay"}, "[11]": {"molecular_target": "Histamine H3 receptor (Homo sapiens) (UniProt Q9Y5N1)", "experiment": "Displacement of [3H]N-alpha-Methylhistamine from full length human recombinant histamine H3 receptor expressed in CHO-K1 cells at 10 uM measured after 120 mins by radiometric scintillation analysis relative to control", "type": "cell-based"}, "[12]": {"molecular_target": "Melanocortin receptor 3 (Homo sapiens) (UniProt P41968)", "experiment": "Displacement of [125I]NDP-alpha-MSH from full length human recombinant MC3 receptor expressed in HEK293 cells at 10 uM measured after 60 mins by radiometric scintillation analysis relative to control", "type": "cell-based"}, "[13]": {"molecular_target": "Cytoplasmic tyrosine-protein kinase BMX (Homo sapiens, UniProt P51813)", "experiment": "Inhibition of recombinant full length human His-tagged BMX cytoplasmic domain expressed in baculovirus expression system using tyrosine-1 peptide as substrate incubated for 60 mins in presence of ATP by Z'-LYTE assay"}, "[14]": {"molecular_target": "Ribosomal protein S6 kinase alpha-3 (Homo sapiens, UniProt P51812)", "experiment": "Inhibition of recombinant full length human His-tagged RSK2 expressed in baculovirus expression system using serine/threonine-6 peptide as substrate incubated for 60 mins in presence of ATP by Z'-LYTE assay"}, "[15]": {"molecular_target": "PI3-kinase p110-delta/p85-alpha (Homo sapiens, UniProt O00329)", "sequence (P27986 whole entry)": "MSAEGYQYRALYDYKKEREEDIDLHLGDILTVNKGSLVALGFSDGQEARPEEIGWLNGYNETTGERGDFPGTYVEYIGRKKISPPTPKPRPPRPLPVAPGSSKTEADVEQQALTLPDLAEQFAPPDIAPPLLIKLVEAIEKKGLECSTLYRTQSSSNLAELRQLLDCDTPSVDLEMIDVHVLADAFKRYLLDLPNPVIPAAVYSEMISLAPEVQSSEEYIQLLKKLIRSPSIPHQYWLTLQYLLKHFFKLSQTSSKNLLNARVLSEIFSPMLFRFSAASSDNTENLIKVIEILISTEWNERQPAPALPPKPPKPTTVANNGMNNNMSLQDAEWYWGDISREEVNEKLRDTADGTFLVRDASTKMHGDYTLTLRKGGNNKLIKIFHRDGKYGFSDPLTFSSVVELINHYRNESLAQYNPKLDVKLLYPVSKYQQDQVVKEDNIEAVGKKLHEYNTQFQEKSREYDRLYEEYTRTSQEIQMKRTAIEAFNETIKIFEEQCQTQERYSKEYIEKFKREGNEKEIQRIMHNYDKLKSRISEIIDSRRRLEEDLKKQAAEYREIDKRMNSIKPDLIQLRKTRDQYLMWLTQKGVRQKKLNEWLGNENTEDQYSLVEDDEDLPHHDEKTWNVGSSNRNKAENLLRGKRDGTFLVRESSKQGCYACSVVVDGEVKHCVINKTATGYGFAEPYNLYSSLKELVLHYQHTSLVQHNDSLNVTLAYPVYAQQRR", "sequence (O00329 whole entry)": "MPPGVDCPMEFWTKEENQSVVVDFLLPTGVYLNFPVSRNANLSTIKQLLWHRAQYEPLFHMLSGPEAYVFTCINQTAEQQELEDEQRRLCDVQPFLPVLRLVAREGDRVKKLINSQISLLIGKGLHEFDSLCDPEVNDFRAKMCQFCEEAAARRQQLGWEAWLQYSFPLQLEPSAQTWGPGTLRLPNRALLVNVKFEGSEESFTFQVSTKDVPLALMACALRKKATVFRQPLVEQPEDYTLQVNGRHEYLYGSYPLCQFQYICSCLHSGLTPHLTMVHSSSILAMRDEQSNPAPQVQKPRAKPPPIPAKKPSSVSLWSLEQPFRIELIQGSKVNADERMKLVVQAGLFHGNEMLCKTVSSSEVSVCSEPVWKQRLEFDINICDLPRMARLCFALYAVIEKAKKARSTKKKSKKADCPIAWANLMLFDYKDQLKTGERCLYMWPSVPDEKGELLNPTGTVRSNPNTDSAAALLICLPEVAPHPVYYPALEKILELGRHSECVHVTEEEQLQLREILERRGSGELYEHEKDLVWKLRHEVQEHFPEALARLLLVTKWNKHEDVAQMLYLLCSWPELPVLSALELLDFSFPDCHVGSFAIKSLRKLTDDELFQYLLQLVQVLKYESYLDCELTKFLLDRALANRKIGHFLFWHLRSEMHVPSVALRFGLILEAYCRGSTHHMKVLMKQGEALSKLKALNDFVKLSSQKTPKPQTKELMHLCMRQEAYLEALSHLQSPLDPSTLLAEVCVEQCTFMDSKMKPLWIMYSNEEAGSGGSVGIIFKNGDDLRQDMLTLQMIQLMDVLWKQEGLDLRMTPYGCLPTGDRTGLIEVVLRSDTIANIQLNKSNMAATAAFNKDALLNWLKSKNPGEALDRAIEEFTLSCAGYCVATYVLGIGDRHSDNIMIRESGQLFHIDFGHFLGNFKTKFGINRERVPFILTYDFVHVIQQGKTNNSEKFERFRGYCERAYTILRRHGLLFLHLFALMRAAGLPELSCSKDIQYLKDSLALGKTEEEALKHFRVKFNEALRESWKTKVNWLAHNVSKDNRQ", "experiment": "Inhibition of His-tagged recombinant human PI3K p110delta/p85alpha expressed in baculovirus expression system using PIP2:PS lipid as substrate in presence of ATP after 1 hr by Adapta assay"}, "[16]": {"molecular_target": "Homeodomain-interacting protein kinase 3 (Homo sapiens, UniProt Q9H422)", "experiment": "Inhibition of recombinant human His-tagged HIPK3 catalytic domain expressed in baculovirus expression system using serine/threonine-9 peptide as substrate incubated for 60 mins in presence of ATP by Z'-LYTE assay"}, "[17]": {"molecular_target": "Casein kinase I isoform gamma-2 (Homo sapiens, UniProt P78368)", "experiment": "Inhibition of recombinant human full-length His-tagged CSNK1G2 expressed in baculovirus expression system using FRET-labeled Ser/Thr 05 peptide as substrate measured after 1 hr in presence of ATP by Z'-lyte assay"}, "[18]": {"molecular_target": "Beta-1 adrenergic receptor (Homo sapiens) (UniProt P08588)", "experiment": "Displacement of [125I]cyanopindolol from full-length recombinant human beta1 adrenergic receptor expressed in CHOK1 cells at 10 uM measured after 120 mins by scintillation counting method relative to control", "type": "cell-based", "details": "CHO-K1"}, "[19]": {"molecular_target": "Receptor tyrosine-protein kinase erbB-4 (Homo sapiens, UniProt Q15303)", "experiment": "Inhibition of recombinant human N-terminal GST-tagged ERBB4 catalytic domain (708 to 993 residues) expressed in baculovirus expression system using tyrosine-1 peptide as substrate incubated for 60 mins in presence of ATP by Z'-LYTE assay"}, "[20]": {"molecular_target": "Prostaglandin E2 receptor EP1 subtype (Homo sapiens) (UniProt P34995)", "experiment": "Displacement of [3H]prostaglandin E2 from full length human recombinant EP1 receptor expressed in HEK293 cells at 10 uM measured after 60 mins by radiometric scintillation analysis relative to control", "type": "cell-based"}, "[21]": {"molecular_target": "Metabotropic glutamate receptor 5 (Homo sapiens) (UniProt P41594)", "experiment": "Displacement of [3H]quisqualic acid from full length human recombinant mGlu5 receptor expressed in CHO-K1 cells at 10 uM measured after 120 mins by radiometric scintillation analysis relative to control", "type": "cell-based"}, "[22]": {"molecular_target": "Insulin-like growth factor 1 receptor (Homo sapiens, UniProt P08069)", "sequence (P08069 31-736 limits assumed)": "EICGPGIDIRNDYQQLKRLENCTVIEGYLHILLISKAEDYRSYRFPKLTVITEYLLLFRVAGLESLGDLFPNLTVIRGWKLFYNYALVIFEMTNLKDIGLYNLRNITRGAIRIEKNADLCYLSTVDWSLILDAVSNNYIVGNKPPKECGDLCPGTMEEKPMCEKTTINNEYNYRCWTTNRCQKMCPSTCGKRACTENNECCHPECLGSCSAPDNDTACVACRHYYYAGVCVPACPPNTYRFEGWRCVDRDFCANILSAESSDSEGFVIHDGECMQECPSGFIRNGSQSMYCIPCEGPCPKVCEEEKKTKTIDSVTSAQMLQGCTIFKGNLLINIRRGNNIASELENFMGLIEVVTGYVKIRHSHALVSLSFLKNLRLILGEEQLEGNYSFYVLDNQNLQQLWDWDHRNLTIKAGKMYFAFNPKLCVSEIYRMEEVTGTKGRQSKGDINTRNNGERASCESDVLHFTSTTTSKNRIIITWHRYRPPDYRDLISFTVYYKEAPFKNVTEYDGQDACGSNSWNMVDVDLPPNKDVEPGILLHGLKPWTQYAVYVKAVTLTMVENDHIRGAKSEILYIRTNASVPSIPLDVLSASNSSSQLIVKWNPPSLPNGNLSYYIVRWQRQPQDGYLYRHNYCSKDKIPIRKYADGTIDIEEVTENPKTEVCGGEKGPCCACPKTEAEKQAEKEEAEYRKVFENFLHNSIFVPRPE", "sequence (P08069 741-1367 limits assumed)": "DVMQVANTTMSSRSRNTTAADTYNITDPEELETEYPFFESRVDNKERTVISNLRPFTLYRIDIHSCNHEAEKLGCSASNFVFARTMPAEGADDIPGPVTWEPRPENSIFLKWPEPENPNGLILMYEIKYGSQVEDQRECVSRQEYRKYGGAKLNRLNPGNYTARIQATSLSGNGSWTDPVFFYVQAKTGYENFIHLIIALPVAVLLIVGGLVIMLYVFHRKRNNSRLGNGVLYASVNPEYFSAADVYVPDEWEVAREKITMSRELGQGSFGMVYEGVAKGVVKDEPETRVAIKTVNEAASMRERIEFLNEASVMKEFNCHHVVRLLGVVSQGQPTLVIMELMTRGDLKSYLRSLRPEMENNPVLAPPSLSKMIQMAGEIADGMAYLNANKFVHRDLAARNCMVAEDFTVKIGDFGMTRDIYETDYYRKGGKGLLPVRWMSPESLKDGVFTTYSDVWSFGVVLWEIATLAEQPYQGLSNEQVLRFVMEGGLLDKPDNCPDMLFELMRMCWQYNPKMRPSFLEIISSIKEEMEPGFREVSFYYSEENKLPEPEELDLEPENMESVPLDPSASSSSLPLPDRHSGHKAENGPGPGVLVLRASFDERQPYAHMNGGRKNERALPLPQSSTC", "experiment": "Inhibition of recombinant human His-tagged IGF1R expressed in baculovirus expression system using tyrosine 1 peptide as substrate incubated for 60 mins in presence of ATP by Z'-LYTE assay"}, "[23]": {"molecular_target": "Mitogen-activated protein kinase 12 (Homo sapiens, UniProt P53778)", "experiment": "Inhibition of recombinant full length human His-tagged p38gamma expressed in baculovirus expression system using serine/threonine-3 peptide as substrate incubated for 60 mins in presence of ATP by Z'-LYTE assay"}, "[24]": {"molecular_target": "Ribosomal protein S6 kinase alpha-4 (Homo sapiens, UniProt O75676)", "experiment": "Inhibition of recombinant full length human GST-tagged RPS6KA4 expressed in baculovirus expression system using ser/Thr01 peptide as substrate incubated for 60 mins in presence of ATP by Z'-LYTE assay"}}, "data": [{"smiles": "C[C@@H]1C[C@H]1C(=O)N1CCN(c2cnc(C#N)c(-c3cnn(C)c3)n2)C[C@H]1C", "values": [{"measurement": "IC50", "setting": "[1]", "value": "> 100", "unit": "µM"}, {"measurement": "IC50", "setting": "Cytochrome P450 2D6", "value": "> 50", "unit": "µM"}, {"measurement": "IC50", "setting": "[2]", "value": "> 100", "unit": "µM"}, {"measurement": "IC50", "setting": "[3]", "value": "> 100", "unit": "µM"}, {"measurement": "IC50", "setting": "[4]", "value": "> 100", "unit": "µM"}, {"measurement": "inhibition", "setting": "[5]", "value": 12, "unit": "%"}, {"measurement": "IC50", "setting": "Aurora kinase A", "value": 16, "unit": "µM"}, {"measurement": "inhibition", "setting": "[6]", "value": 9, "unit": "%"}, {"measurement": "IC50", "setting": "[7]", "value": "> 100", "unit": "µM"}, {"measurement": "half-life", "setting": "[8]", "value": 36, "unit": "min"}, {"measurement": "inhibition", "setting": "[9]", "value": 7, "unit": "%"}, {"measurement": "IC50", "setting": "[10]", "value": "> 100", "unit": "µM"}, {"measurement": "inhibition", "setting": "[11]", "value": -1, "unit": "%"}, {"measurement": "inhibition", "setting": "[12]", "value": 2, "unit": "%"}, {"measurement": "IC50", "setting": "[13]", "value": "> 100", "unit": "µM"}, {"measurement": "IC50", "setting": "[14]", "value": 29.1, "unit": "µM"}, {"measurement": "IC50", "setting": "[15]", "value": 0.884, "unit": "µM"}, {"measurement": "IC50", "setting": "[16]", "value": "> 100", "unit": "µM"}, {"measurement": "IC50", "setting": "[17]", "value": "> 100", "unit": "µM"}, {"measurement": "inhibition", "setting": "[18]", "value": 4, "unit": "%"}, {"measurement": "IC50", "setting": "[19]", "value": "> 100", "unit": "µM"}, {"measurement": "inhibition", "setting": "[20]", "value": 11, "unit": "%"}, {"measurement": "inhibition", "setting": "[21]", "value": 8, "unit": "%"}, {"measurement": "IC50", "setting": "[22]", "value": "> 100", "unit": "µM"}, {"measurement": "IC50", "setting": "[23]", "value": "> 100", "unit": "µM"}, {"measurement": "IC50", "setting": "[24]", "value": "> 100", "unit": "µM"}]}]}
